Results: patent US4062948A, “Dihydromocimycin antibiotics” (Gist-Brocades N.V., priority 1970, dated 1977)
In brackets after ≈: the same amount, converted by molar mass. Entries after “also recorded” stand apart in the source; their conditions may differ.

Legend:
[1] = system: Staphylococcus aureus A 2000; assay: Agar dilution tests; format: cell-based; settings: A2000, anaerobic culture, read-out: Minimum inhibitory concentration
[2] = system: Bacillus mesenterium D169; assay: Liquid dilution tests; format: cell-based; settings: read-out: Minimum inhibitory concentration
[3] = system: Listeria monocytogenes A2132; assay: Agar dilution tests; format: cell-based; settings: anaerobic culture, read-out: Minimum inhibitory concentration
[4] = system: Staphylococcus aureus A 2001; assay: Agar dilution tests; format: cell-based; settings: A2001, anaerobic culture, read-out: Minimum inhibitory concentration
[5] = system: microorganism causing Treponema dysentery; assay: experiments against the microorganism causing Treponema dysentery
[6] = system: Salmonella typhimurium R172; assay: Agar dilution tests; format: cell-based; settings: Salmonella enterica, anaerobic culture, read-out: Minimum inhibitory concentration
Treponema spec. A2275 = assay: Agar dilution tests; format: cell-based; settings: anaerobic culture, read-out: Minimum inhibitory concentration
[7] = system: Bacillus cereus var. mycoides; assay: microbe, parasite or virus in culture; format: cell-based; settings: read-out: Minimum inhibitory concentration
[8] = system: Bacillus thuringiensis W11; assay: Liquid dilution tests; format: cell-based; settings: read-out: Minimum inhibitory concentration
[9] = system: Listeria monocytogenes A2131; assay: Agar dilution tests; format: cell-based; settings: anaerobic culture, read-out: Minimum inhibitory concentration
[10] = system: Streptococcus zocepidemicus A2144; assay: Agar dilution tests; format: cell-based; settings: anaerobic culture, read-out: Minimum inhibitory concentration
[11] = system: Streptomyces viridochromogenes; assay: Liquid dilution tests; format: cell-based; settings: read-out: Minimum inhibitory concentration
Bacillus cereus B569 = assay: Liquid dilution tests; format: cell-based; settings: read-out: Minimum inhibitory concentration
[12] = system: same microorganisms as mocimycin; assay: in vitro antimicrobial activity, comparison of the two antibiotics; format: cell-based
[13] = growth and feed-conversion of animals being fattened; format: in vivo; settings: low concentration in feed; chickens or pigs
From the text: Many properties of dihydromocimycin are similar to those of mocimycin.

[14] = system: Mycoplasma hyorhinus A2230; assay: Liquid dilution tests; format: cell-based; settings: A2230, read-out: Minimum inhibitory concentration
[15] = system: Bacillus subtilis ATCC 6633; assay: Liquid dilution tests; format: cell-based; settings: ATCC6633, read-out: Minimum inhibitory concentration
Solubility = format: physicochemical
Bacillus cereus D261 = assay: Liquid dilution tests; format: cell-based; settings: read-out: Minimum inhibitory concentration
[16] = system: Pasteurella haemolytica A2136; assay: Agar dilution tests; format: cell-based; settings: Mannheimia haemolytica, anaerobic culture, read-out: Minimum inhibitory concentration
Escherichia coli U20 = assay: Agar dilution tests; format: cell-based; settings: anaerobic culture, read-out: Minimum inhibitory concentration
[17] = system: Clostridium septicum A2152; assay: Agar dilution tests; format: cell-based; settings: anaerobic culture, read-out: Minimum inhibitory concentration
[18] = system: Diplococcus pneumoniae L54; assay: Agar dilution tests; format: cell-based; settings: Streptococcus pneumoniae, anaerobic culture, read-out: Minimum inhibitory concentration
[19] = system: Listeria monocytogenes A2130; assay: Agar dilution tests; format: cell-based; settings: anaerobic culture, read-out: Minimum inhibitory concentration
[20] = system: Clostridium perfringens A738; assay: microbe, parasite or virus in culture; format: cell-based; settings: A738, read-out: Minimum inhibitory concentration
[21] = system: Streptococcus haemolyticus A2182; assay: Liquid dilution tests; format: cell-based; settings: read-out: Minimum inhibitory concentration
Bacillus cereus D166 = assay: Liquid dilution tests; format: cell-based; settings: read-out: Minimum inhibitory concentration
[22] = system: Bacillus subtilis 6346 D167; assay: Liquid dilution tests; format: cell-based; settings: read-out: Minimum inhibitory concentration
[23] = system: Bacillus subtilis ATCC 6051; assay: Liquid dilution tests; format: cell-based; settings: ATCC6051, read-out: Minimum inhibitory concentration
[24] = system: Bacillus subtilis 220 D178; assay: Liquid dilution tests; format: cell-based; settings: read-out: Minimum inhibitory concentration
[25] = system: Streptococcus haemolyticus A266; assay: Liquid dilution tests; format: cell-based; settings: A266, read-out: Minimum inhibitory concentration
Bacillus subtilis TH 10 = assay: Liquid dilution tests; format: cell-based; settings: TH10, read-out: Minimum inhibitory concentration
Bacillus cereus D220 = assay: Liquid dilution tests; format: cell-based; settings: read-out: Minimum inhibitory concentration
R-Streptococcen A2148 = assay: Agar dilution tests; format: cell-based; settings: read-out: Minimum inhibitory concentration
Bacillus cereus TH 1 = assay: Liquid dilution tests; format: cell-based; settings: TH1, read-out: Minimum inhibitory concentration
[26] = system: Brucella suis (smooth) A2126; assay: microbe, parasite or virus in culture; format: cell-based; settings: read-out: Minimum inhibitory concentration
[27] = growth promotion in pigs (Example III); format: in vivo; settings: pigs, summary of Table VII
Procedure: The sodium salt of mocimycin as obtained in Example I, was pre-mixed with wheat flour which mixture, added to the feed, was administered to pigs. The amount of the antibiotic present in the feed (based on the weight of the feed) is given hereinbelow in Table VII, in which the average relative weights of the pigs after 6 and 12 weeks, respectively are given.

[28] = system: Clostridium welchii A 738; assay: microbe, parasite or virus in culture; format: cell-based; settings: A738, 18 h, read-out: Minimum inhibitory concentration
[29] = Stability of the solid antibiotic; format: physicochemical; settings: for stable (solid): 100% relative humidity
[30] = system: human-pathogenic microorganisms; assay: in vitro activity against human-pathogenic microorganisms; format: cell-based; settings: summary of Table II
Procedure: The microbiological activity of the antibiotic preparation towards a number of micoorganisms has been determined by a micro liquid serial dilution test:
A stock solution of the test compounds at a concentration of 200 μg/ml in 0.05 molar phosphate buffer at a pH of 6.5 was prepared and serial 1:1 dilutions were made with a liquid medium inoculated with the test organism, using conventional glass spot-test plates. The plates were incubated 18 hours at 30° C or 37° C. The minimum inhibitory concentration (MIC) which is the smallest concentration of compound completely inhibiting the growth of the test organism is read and calculated in μg/ml.

CC=CC=CC1OC(O)(C(CC)C(=O)NCC=CC=C(C)C(OC)C(C)C2OC(C=CC=CC=C(C)C(=O)C3=C(O)CCNC3=O)C(O)C2O)C(O)C(O)C1(C)C (stereo not shown) [dihydromocimycin]
MIC [1]: > 100 µg/mL | MIC [2]: 50 µg/mL (≈ 62.6 µM) | MIC [3]: 6 µg/mL (≈ 7.51 µM) | MIC [4]: > 100 µg/mL | treatment of Treponema dysentery compared with tylosin and mocimycin [5]: superior to tylosin (and also to mocimycin) | activity against tylosin-resistant strains ([5]; tylosin-resistant strains): active against tylosin-resistant strains | MIC [6]: > 100 µg/mL | MIC (Treponema spec. A2275): 10 µg/mL (≈ 12.5 µM) | MIC [7]: 0.45 µg/mL (≈ 0.563 µM) | MIC [8]: 0.9 µg/mL (≈ 1.13 µM) | MIC [9]: 6 µg/mL (≈ 7.51 µM) | MIC [10]: 6 µg/mL (≈ 7.51 µM) | MIC [11]: 0.9 µg/mL (≈ 1.13 µM) | MIC (Bacillus cereus B569): 1.2 µg/mL (≈ 1.5 µM) | in vitro activity compared with mocimycin [12]: in many cases it shows even a better activity than mocimycin; also recorded: more active than mocimycin against many microorganisms | growth and feed-conversion [13]: does not show any improvement of the growth or feed-conversion; also recorded: does not show the aforesaid properties | MIC [14]: 0.3 µg/mL (≈ 0.375 µM) | MIC [15]: 50 µg/mL (≈ 62.6 µM) | solubility (Solubility; carbon tetrachloride and benzene (dihydromocimycin)): moderate | solubility (Solubility; chloroform, methyl isobutyl ketone, ethyl acetate, butyl acetate, acetone, dioxan, methanol, ethanol, tetrahydrofuran, weakly alkaline aqueous solutions): good | solubility (Solubility; diethyl ether, water, weakly acid aqueous solutions, cyclohexane and petroleum ether): insoluble | MIC (Bacillus cereus D261): 0.6 µg/mL (≈ 0.751 µM) | MIC [16]: 1.5 µg/mL (≈ 1.88 µM) | MIC (Escherichia coli U20): 100 µg/mL (≈ 125 µM) | MIC [17]: 10 µg/mL (≈ 12.5 µM) | MIC [18]: < 0.75 µg/mL | MIC [19]: 1.5 µg/mL (≈ 1.88 µM) | MIC [20]: > 100 µg/mL | MIC [21]: 0.12 µg/mL (≈ 0.15 µM) | MIC (Bacillus cereus D166): 0.6 µg/mL (≈ 0.751 µM) | MIC [22]: 0.9 µg/mL (≈ 1.13 µM) | MIC [23]: 50 µg/mL (≈ 62.6 µM) | MIC [24]: 75 µg/mL (≈ 93.9 µM) | MIC [25]: 0.45 µg/mL (≈ 0.563 µM) | MIC (Bacillus subtilis TH 10): 50 µg/mL (≈ 62.6 µM) | MIC (Bacillus cereus D220): 0.9 µg/mL (≈ 1.13 µM) | MIC (R-Streptococcen A2148): 3 µg/mL (≈ 3.75 µM) | MIC (Bacillus cereus TH 1): 1.2 µg/mL (≈ 1.5 µM) | MIC [26]: 0.4 µg/mL (≈ 0.501 µM)

CC=CC=CC1OC(O)(C(CC)C(=O)NCC=CC=C(C)C(OC)C(C)C2OC(C=CC=CC=C(C)C(=O)c3c(O)cc[nH]c3=O)C(O)C2O)C(O)C(O)C1(C)C (stereo not shown) [mocimycin]
MIC [1]: > 100 µg/mL | MIC [2]: 100 µg/mL (≈ 125 µM) | MIC [3]: 6 µg/mL (≈ 7.53 µM) | MIC [4]: > 100 µg/mL | growth promoting effect [27]: growth promoting effect | MIC [6]: > 100 µg/mL | MIC (Treponema spec. A2275): 30 µg/mL (≈ 37.6 µM) | MIC [7]: 1.2 µg/mL (≈ 1.51 µM) | MIC [8]: 1.2 µg/mL (≈ 1.51 µM) | MIC [9]: 6 µg/mL (≈ 7.53 µM) | MIC [10]: 6 µg/mL (≈ 7.53 µM) | MIC [28]: 10 µg/mL (≈ 12.5 µM) | MIC [11]: 2.5 µg/mL (≈ 3.14 µM) | MIC (Bacillus cereus B569): 2.5 µg/mL (≈ 3.14 µM) | growth and feed-conversion [13]: improves the growth and the feed-conversion markedly; also recorded: advantageous growth-promoting properties | MIC [14]: 1 µg/mL (≈ 1.25 µM) | MIC [15]: 100 µg/mL (≈ 125 µM) | solubility (Solubility; carbon tetrachloride and benzene (mocimycin)): poor | solubility (Solubility; chloroform, methyl isobutyl ketone, butyl acetate, ethyl acetate, acetone, methanol and alkaline solutions): good | solubility (Solubility; diethyl ether, petroleum ether, water and acid solutions): insoluble | solubility (Solubility; pH 9): poorly soluble | MIC (Bacillus cereus D261): 0.9 µg/mL (≈ 1.13 µM) | MIC [16]: 3 µg/mL (≈ 3.76 µM) | MIC (Escherichia coli U20): > 100 µg/mL | no loss in activity of the solid ([29]; 25° C and 37° C, low relative humidities): at least 5 months | stable (solid) ([29]; 25° C): 3 months | stable (solid) ([29]; 37° C): 2 months | MIC [17]: 10 µg/mL (≈ 12.5 µM) | MIC [18]: 1.5 µg/mL (≈ 1.88 µM) | MIC [19]: 6 µg/mL (≈ 7.53 µM) | MIC [20]: > 100 µg/mL | MIC [21]: 0.25 µg/mL (≈ 0.314 µM) | MIC (Bacillus cereus D166): 0.6 µg/mL (≈ 0.753 µM) | activity against a number of human-pathogenic microorganisms [30]: almost no activity | MIC [22]: 1.2 µg/mL (≈ 1.51 µM) | MIC [23]: 100 µg/mL (≈ 125 µM) | MIC [24]: 75 µg/mL (≈ 94.1 µM) | MIC [25]: 0.45 µg/mL (≈ 0.565 µM) | MIC (Bacillus subtilis TH 10): 100 µg/mL (≈ 125 µM) | MIC (Bacillus cereus D220): 1.2 µg/mL (≈ 1.51 µM) | MIC (R-Streptococcen A2148): 6 µg/mL (≈ 7.53 µM) | MIC (Bacillus cereus TH 1): 1.8 µg/mL (≈ 2.26 µM) | MIC [26]: 0.75 µg/mL (≈ 0.941 µM)
